Measurements: paper PMC8075848 (Cell Reports, 2021)
Read-outs that look alike come from different tables or passages of the source.

Legend:
SARS-CoV-2 M^pro [1] = target: T1, SARS-CoV-2 M^pro (Severe acute respiratory syndrome coronavirus 2, UniProt P0DTD1); assay: M^pro FRET proteolysis inhibition assay; type: biochemical; settings: 20 μM drug, 10 nM M^pro
SARS-CoV-2 M^pro [2] = target: T1, SARS-CoV-2 M^pro; assay: M^pro 1D 1H-NMR proteolysis inhibition assay; type: biochemical; settings: 50 μM inhibitor, 100 nM M^pro
SARS-CoV-2 [3] = assay: SARS-CoV-2 replication inhibition in Vero E6 cells; type: cell-based; settings: up to 50 μM drug
PL^pro = settings: ref Anson et al., 2020; cited from earlier work
SARS-CoV-2 [4] = type: cell-based
SARS-CoV-2 [5] = settings: ref Anson et al., 2020, Fu et al., Ma et al.; cited from earlier work
M^pro = settings: cited from earlier work; for Inhibition of M^pro proteolytic activity: ref Anson et al., 2020, Fu et al., Kneller et al., 2020a, Ma et al.
SARS-CoV-2 [6] = assay: Antiviral combination assay with remdesivir in Vero E6 cells; type: cell-based; settings: for Effect of HCV drug on the antiviral activity of remdesivir, in words / Effect of remdesivir on the antiviral activity (IC90) of the HCV drug, in words: Vero cells; for Effect of HCV drug on the antiviral activity of remdesivir, in words: IC90 of remdesivir with increasing HCV drug; for Effect of remdesivir on the antiviral activity (IC90) of the HCV drug, in words: addition of 1.25 μM remdesivir
SARS-CoV-2 PL^pro = SARS-CoV-2 PL^pro (Severe acute respiratory syndrome coronavirus 2, UniProt P0DTD1); type: biochemical; settings: for PL^pro protease activity inhibition, in words: 20 μM drug (grazoprevir in Fig S6: 100 µM)
SARS-CoV-2 [7] = type: cell-based; remark: listed apart in the source
SARS-CoV-2 [8] = assay: Time-of-addition assay; type: cell-based; settings: BOC 50 μM, GRZ 25 μM, NAR 50 μM, VAN 5 μM, SIM 5 μM, added -2, 0, +2, +4 h
SARS-CoV-2 [9] = settings: ref Lo et al., 2021; cited from earlier work
Vero E6 cells = settings: MTT

Row | SMILES | M^pro inhibition activity in FRET assay, in words (SARS-CoV-2 M^pro [1]) | M^pro inhibitory activity in 1D 1H-NMR assay, in words (SARS-CoV-2 M^pro [2]) | Inhibition of virus replication in Vero E6 cells, in words (SARS-CoV-2 [3]) | Synergy Score (ZIP, SynergyFinder) with remdesivir (SARS-CoV-2 [6]) | PL^pro protease activity inhibition, in words (SARS-CoV-2 PL^pro) | also measured
1 | C=C[C@@H]1C[C@]1(NC(=O)[C@@H]1C[C@@H](Oc2ncc(OC)c3ccc(Cl)cc23)CN1C(=O)[C@@H](NC(=O)OC(C)(C)C)C(C)(C)C)C(=O)NS(=O)(=O)C1CC1 [ASU, Asunaprevir] | not detected | moderate inhibitory activity | inhibited SARS-CoV-2 virus replication at concentrations significantly lower than the concentrations that cause cytotoxicity | – | – | Inhibition of PL^pro (PL^pro): inhibit; Inhibition of virus replication in human 293T cells, in words (SARS-CoV-2 [4]): did not inhibit viral replication in human cells at concentrations lower than those exhibiting cytotoxicity
2 | CC(C)(C)NC(=O)N[C@H](C(=O)N1C[C@H]2[C@@H]([C@H]1C(=O)NC(CC1CCC1)C(=O)C(N)=O)C2(C)C)C(C)(C)C (stereo partly shown) [BOC, Boceprevir] | – | substantial enzyme inhibition activity | inhibited SARS-CoV-2 virus replication at concentrations significantly lower than the concentrations that cause cytotoxicity | −7.6 | – | Inhibition of SARS-CoV-2 replication in Vero cells (SARS-CoV-2 [5]): inhibit; Inhibition of M^pro proteolytic activity (M^pro): inhibit; Effect of HCV drug on the antiviral activity of remdesivir, in words (SARS-CoV-2 [6]): did not significantly affect the antiviral activity of remdesivir; Effect of remdesivir on the antiviral activity (IC90) of the HCV drug, in words (SARS-CoV-2 [6]): did not significantly affect
3 | CC(C)(C)OC(=O)N[C@H]1CCCCC/C=C\[C@@H]2C[C@@]2(C(=O)NS(=O)(=O)C2CC2)NC(=O)[C@@H]2C[C@@H](OC(=O)N3Cc4cccc(F)c4C3)CN2C1=O [DAN, Danoprevir] | – | – | did not inhibit virus replication | – | – | Inhibition of virus replication in human 293T cells, in words (SARS-CoV-2 [4]): did not inhibit virus replication
4 | CC(C)C[C@H](NC(=O)OCc1ccccc1)C(=O)N[C@@H](CC1CCNC1=O)C(O)S(=O)(=O)[O-].[Na+] (stereo partly shown) [GC-376] | – | – | – | – | – | Specificity for M^pro relative to PL^pro (M^pro; ref Sacco et al., 2020): specific; Interaction with remdesivir (additive / synergistic) (SARS-CoV-2 [6]; combination with remdesivir, Vero E6 cells): additive (an additive interaction has a score between −10 to +10)
5 | CC(C)(C)[C@@H]1NC(=O)O[C@@H]2CCC[C@H]2OC/C=C/C(F)(F)c2nc3ccccc3nc2O[C@@H]2C[C@@H](C(=O)N[C@]3(C(=O)NS(=O)(=O)C4(C)CC4)C[C@H]3C(F)F)N(C2)C1=O [GLE, Glecaprevir] | – | – | did not inhibit virus replication | – | – | Inhibition of virus replication in human 293T cells, in words (SARS-CoV-2 [4]): did not inhibit virus replication
6 | C=C[C@@H]1C[C@]1(NC(=O)[C@@H]1C[C@@H]2CN1C(=O)[C@H](C(C)(C)C)NC(=O)O[C@@H]1C[C@H]1CCCCCc1nc3ccc(OC)cc3nc1O2)C(=O)NS(=O)(=O)C1CC1.O [GRZ, Grazoprevir] | not detected | moderate inhibitory activity | inhibited SARS-CoV-2 virus replication at concentrations significantly lower than the concentrations that cause cytotoxicity | +25.0 | inhibit | PL^pro initial rate relative to absence of inhibitor (vo/vo,i) (SARS-CoV-2 PL^pro; 100 μM drug concentration): 32% ± 7%; Inhibition of PL^pro (PL^pro): inhibit; Interaction with remdesivir (additive / synergistic) (SARS-CoV-2 [7]): synergistic (key: a synergistic interaction between drugs has a score greater than +10; an additive interaction has a score between −10 to +10; an antagonistic interaction has a score of less than −10); Synergy Score (ZIP, SynergyFinder) with remdesivir (SARS-CoV-2 [7]): +20.3; Inhibition of virus replication by time of drug addition, in words (SARS-CoV-2 [8]): inhibited by the addition of these drugs as late as 4 h post-infection; Effect of HCV drug on the antiviral activity of remdesivir, in words (SARS-CoV-2 [6]): increase the antiviral activity of remdesivir; Effect of remdesivir on the antiviral activity (IC90) of the HCV drug, in words (SARS-CoV-2 [6]): substantially reduces
7 | CCCC[C@H](NC(=O)[C@@H]1[C@@H]2[C@H](CN1C(=O)[C@@H](NC(=O)NC1(CS(=O)(=O)C(C)(C)C)CCCCC1)C(C)(C)C)C2(C)C)C(=O)C(=O)NC1CC1 [NAR, Narlaprevir] | – | substantial enzyme inhibition activity | inhibited SARS-CoV-2 virus replication at concentrations significantly lower than the concentrations that cause cytotoxicity | – | – | Inhibition of M^pro proteolytic activity (M^pro): inhibit
8 | Cc1cnc(C(=O)N[C@H]2CCCCC/C=C\[C@@H]3C[C@@]3(C(=O)NS(=O)(=O)C3CC3)NC(=O)[C@@H]3C[C@@H](Oc4nc5ccccc5c5ccccc45)CN3C2=O)cn1 [PAR, Paritaprevir] | does not inhibit | does not inhibit | inhibited SARS-CoV-2 virus replication at concentrations significantly lower than the concentrations that cause cytotoxicity | +17.3 | inhibit | –
9 | CCC(CC)COC(=O)[C@H](C)N[P@](=O)(OC[C@H]1O[C@@](C#N)(c2ccc3c(N)ncnn23)[C@H](O)[C@@H]1O)Oc1ccccc1 [Remdesivir, remdesivir] | – | – | – | – | – | Inhibition of virus replication by time of drug addition, in words (SARS-CoV-2 [8]): decreased its ability to suppress virus infection
10 | COc1ccc2c(O[C@@H]3C[C@H]4C(=O)N[C@]5(C(=O)NS(=O)(=O)C6CC6)C[C@H]5/C=C\CCCCN(C)C(=O)[C@@H]4C3)cc(-c3nc(C(C)C)cs3)nc2c1C [SIM, Simeprevir] | not detected | moderate inhibitory activity | inhibited virus replication with low IC50 values | +30.2 | inhibit | Interaction with remdesivir (SARS-CoV-2 [9]): synergistically; Cytotoxicity in Vero E6 cells, in words (Vero E6 cells): some cytotoxicity was also observed; Inhibition of PL^pro (PL^pro): inhibit; Inhibition of virus replication by time of drug addition, in words (SARS-CoV-2 [8]): inhibited by the addition of these drugs as late as 4 h post-infection; Effect of HCV drug on the antiviral activity of remdesivir, in words (SARS-CoV-2 [6]): increase the antiviral activity of remdesivir; Effect of remdesivir on the antiviral activity (IC90) of the HCV drug, in words (SARS-CoV-2 [6]): substantially reduces
11 | CCC[C@H](NC(=O)[C@@H]1[C@H]2CCC[C@H]2CN1C(=O)[C@@H](NC(=O)[C@@H](NC(=O)c1cnccn1)C1CCCCC1)C(C)(C)C)C(=O)C(=O)NC1CC1 [TEL, Telaprevir] | – | substantial enzyme inhibition activity | did not inhibit virus replication | – | – | Inhibition of M^pro proteolytic activity (M^pro): inhibit
12 | CC[C@@H]1C[C@]1(NC(=O)[C@@H]1C[C@@H]2CN1C(=O)[C@H](C(C)(C)C)NC(=O)OCC(C)(C)CCCCc1cccc3c1CN(C3)C(=O)O2)C(=O)NS(=O)(=O)C1CC1 [VAN, Vaniprevir] | not detected | substantial inhibitory activity | inhibited virus replication with low IC50 values | – | inhibit | Cytotoxicity in Vero E6 cells, in words (Vero E6 cells): some cytotoxicity was also observed
